# Assay results from paper PMC7108851 (Journal of Virology, 2020).
# “And” between values parts separate entries of the source, which are not always exact repeats. Identical values can stand only once. Like-named read-outs stand apart in the source and are kept apart here.
# Assays:
# [1] = assay type: in vivo, female BLT mice; settings: for genital tract tissue concentrations relative to what has been observed in women: single dose TFV 150 mg/kg, higher than in women (54)
# Procedure: For RPV LA, 14 mice were injected intramuscularly in the flank with 3 mg RPV LA, for a dose of approximately 150 mg/kg. Two mice were euthanized at 1, 3, 6, 12, 24, 48, and 168 h postinjection. For TFV/FTC, an additional 12 mice were injected intraperitoneally with 150 mg/kg TFV and 100 mg/kg FTC. Two mice were euthanized at 1, 3, 6, 12, 24, and 48 h postinjection. Blood was drawn at each time point until euthanasia, and plasma was separated. At necropsy, female genital tract and colon/rectum were collected, weighed, and immediately flash-frozen dry.
# RPV, TFV, and FTC were extracted from mouse plasma with isotopically labeled internal standards (RPV-d6; TFV-^13C5; and FTC-^13C, ^15N2, respectively) using protein precipitation. TFV and FTC were separated on a Waters Atlantis T3 (2.1 by 50 mm, 3 μm) high-performance liquid chromatography (HPLC) column and RPV on an Xterra MS C18 (2.1 by 50 mm, 3.5 μm) HPLC column. The calibrated ranges were 1 to 4,000 ng/ml (TFV and FTC) or 1 to 10,000 ng/ml (RPV). Calibration standards and quality control (QC) samples were prepared in blank plasma with an acceptance criteria of ±20%.
# Frozen tissue biopsy specimens were homogenized in 1 ml of cold 70:30 acetonitrile–1 mM ammonium phosphate (pH 7.4). RPV, TFV, FTC, TFVdp, and FTCtp were extracted from tissue homogenate with the following isotopically labeled internal standards: RPV-d6; TFV-^13C5; FTC-^13C, ^15N2; and TFVdp-^13C5 (for both TFVdp and FTCtp). For quantification, analytes and internal standards were separated on a Waters Atlantis T-3 C18 HPLC column (TFV and FTC), a ThermoBioBasic AX HPLC column (TFVdp and FTCtp), or an Xterra MS C18 (2.1 by 50 mm, 3.5 μm) HPLC column (RPV). The calibrated ranges were 0.300 to 300 ng/ml (TFV, FTC, TFVdp, and FTCtp) and 1 to 200 ng/ml (RPV). Resulting concentrations were normalized to tissue weight assuming a tissue density of 1 g/ml ([86]) and reported as nanograms or femtomole per gram. Calibration standards and QC samples were prepared in blank tissue homogenate with an acceptance criteria of ±20%.
# WT HIV-1CH185 = assay: Drug susceptibility assay in TZM-bl cells; assay type: cell-based; settings: Human immunodeficiency virus 1, Fig. 9B
# Procedure: (§1) WT, Y181C, and Y181V HIV-1 stocks were phenotyped for resistance to RPV or RPV LA as previously described ([68]). Briefly, TZM-bl cells ([84]) were seeded at 5 × 10^3 cells in 96-well cell culture-treated, white-walled plates (PerkinElmer) in phenol red-free Dulbecco’s modified Eagle’s medium (DMEM; Life Technologies) supplemented with 10% fetal bovine serum (FBS; Atlanta Biologicals) and 100 U/ml penicillin, 100 μg/ml streptomycin, and 0.292 mg/ml L-glutamine (PSG; Life Technologies). The following day, virus was added at a multiplicity of infection (MOI) of 0.05 in the presence or absence of RPV dilutions in triplicate. Plates were incubated at 37°C for 48 h, and luciferase was measured using Britelite Plus reagent (PerkinElmer) on a Luminoskan Ascent microplate luminometer (Thermo Scientiﬁc). Relative light units (RLU) were converted to percent infection by dividing the RLU of each drug dilution by the RLU of the 100% infection control in the absence of drug. Wells containing cells with no virus and no drug were used to normalize for background luciferase output. The EC50 was calculated by log transforming drug concentrations and using a four-parameter variable-slope nonlinear regression for curve-ﬁtting analysis using PRISM 6 (GraphPad).
# WT HIV-1NL4-BAL = assay: Drug susceptibility assay in TZM-bl cells; assay type: cell-based; settings: Human immunodeficiency virus 1, BAL
# Procedure: as §1
# Y181C HIV-1NL4-BAL = assay: Drug susceptibility assay in TZM-bl cells; assay type: cell-based; settings: Fig. 1A
# Procedure: as §1
# Y181V HIV-1CH185 = assay: Drug susceptibility assay in TZM-bl cells; assay type: cell-based; settings: Fig. 9B
# Procedure: as §1
# Y181V HIV-1NL4-BAL = assay: Drug susceptibility assay in TZM-bl cells; assay type: cell-based
# Procedure: as §1
# Y181I HIV-1NL4-BAL = assay: Drug susceptibility assay in TZM-bl cells; assay type: cell-based; settings: Fig. 1A
# E138K = assay: RPV resistance of RT mutant (data not shown); assay type: cell-based, HIV-1
# HIV-1 = settings: cited from earlier work
# Y181C = system: Y181C; design: method as in PMID 19933797; settings: cited from earlier work
# Y181V = system: Y181V; design: method as in earlier work; settings: cited from earlier work
# [2] = system: simian immunodeficiency virus (SIV); settings: cited from earlier work
# [3] = even at a high dose; cited from earlier work
# [4] = cited from earlier work
# Y181I/V = system: Y181I/V; design: method as in PMID 19933797; settings: cited from earlier work
smiles,measurement,setting,value
"CC(Cn1cnc2c(N)ncnc21)OCP(=O)(O)OP(=O)(O)OP(=O)(O)O (stereo in doubt) [TFVdp, TFV diphosphate]",genital tract tissue concentrations relative to what has been observed in women,[1],approximately 10 fold
"Nc1nc(=O)n([C@@H]2CS[C@H](COP(=O)(O)OP(=O)(O)OP(=O)(O)O)O2)cc1F [FTCtp, FTC triphosphate]",tissue FTC triphosphate (FTCtp) concentrations,"[1]; female genital tract, 12 h, 24 h, and 48 h postdose, single dose PK study",undetectable
"Cc1cc(/C=C/C#N)cc(C)c1Nc1ccnc(Nc2ccc(C#N)cc2)n1 [RPV, rilpivirine]",EC50,WT HIV-1CH185,0.21 ± 0.003 nM
same,EC50,"WT HIV-1NL4-BAL; Fig. 1A, read-out: 50% effective concentration (EC50)",0.54 nM and 0.0002 µg/mL
same,EC50,"WT HIV-1NL4-BAL; Fig. 9B, read-out: average EC50",0.34 ± 0.07 nM
same,EC50,"WT HIV-1NL4-BAL; RPV LA compared with soluble RPV, Fig. 2, read-out: EC50",0.6 nM and 0.00022 µg/mL
same,fold increase in EC50 (RPV resistance) vs WT HIV-1NL4-BAL,Y181C HIV-1NL4-BAL,3 fold
same,EC50,"Y181V HIV-1CH185; Human immunodeficiency virus 1, TZM-bl cells",12 ± 1.5 nM
same,fold change from the level for WT HIV-1NL4-BAL,Y181V HIV-1CH185; Y181V HIV-1CH185,36 fold
same,EC50,"Y181V HIV-1NL4-BAL; Human immunodeficiency virus 1, BAL, TZM-bl cells, Fig. 9B",7.3 ± 1.3 nM
same,fold change from the level for WT HIV-1NL4-BAL,"Y181V HIV-1NL4-BAL; Y181V HIV-1NL4-BAL, Fig. 9B",21 fold
same,fold increase in EC50 (RPV resistance) vs WT HIV-1NL4-BAL,"Y181V HIV-1NL4-BAL; Y181V, TZM-bl cells, Fig. 1A",27 fold
same,reduced susceptibility to RPV of virus encoding Y181V,Y181V HIV-1NL4-BAL; discussion,> 20 fold
same,RPV resistance of Y181V HIV-1,Y181V HIV-1NL4-BAL; in the viruses used for this study (abstract),30 fold
same,fold increase in EC50 (RPV resistance) vs WT HIV-1NL4-BAL,Y181I HIV-1NL4-BAL,23 fold
same,resistance conferred by E138K,E138K,2 fold
same,protein-adjusted 90% effective concentration (EC90),HIV-1,12 ng/mL and 12.1 ng/mL
same,EC90,HIV-1; read-out: protein-adjusted EC90,33 nM
same,resistance conferred by Y181C,Y181C,3 fold
same,resistance conferred by Y181V,Y181V,approximately 20 fold
same,inhibition of simian immunodeficiency virus (SIV),[2],does not inhibit
same,metabolism in macaques,[3],rapidly metabolized
same,protein binding,[4],highly protein bound
"C[C@H](Cn1cnc2c(N)ncnc21)OCP(=O)(O)O [TFV, tenofovir]",genital tract tissue concentrations relative to what has been observed in women,[1],approximately 10 fold
Cc1ccnc2c1NC(=O)c1cccnc1N2C1CC1 [nevirapine],resistance conferred by Y181C,Y181C,> 40 fold
same,resistance conferred by Y181I/V,Y181I/V,> 60 fold
